Experimental data reported in US5861481A, “Peptide lung surfactants and therapeutic combinations” (Merrell Pharmaceuticals Inc., priority 1997, dated 1999).

System: adult rat lavaged lungs
Assay: Isolated rat lavaged lung model (pressure-volume curves)
Protocol: Preparation of Artificial Surfactants. For triplicate samples of the synthetic lung surfactants 75 mg of DPPC (L-α-dipalmitoylphosphatidylcholine; >99% pure; Avanti Polar Lipids, Birmingham, Ala.) in 1 ml of chloroform were dried under a stream of nitrogen and placed in a lyophilizer overnight to remove traces of organic solvent. To the dry lipid mixture were added 9 ml of water. The preparation was incubated for 1 hr at 45°-50° C. with occasional vortexing. Then, in some samples, […] of dry test peptide were added to the aqueous preparation. The preparations were mildly sonicated with and without peptide in a cleaning bath sonicator (Branson 1200) at 45°-50° C. for 2 h to promote peptide dispersion and peptide-lipid interactions. The resulting lipid-peptide mixtures were divided into three parts, lyophilized and stored at -20° C.
The experimental procedures for animal preparation, pressure-volume curve registration and lung lavage have been described by the rat lung model (Ikegami, et al., (1979) Pediatr. Res. 13, 777-780) as modified by McLean et al., Am. J. Physiol. (1992), L292-L300. Briefly, the lungs of adult rats were suspended in 0.9% saline at 37° C. were connected to a water manometer and an air-filled syringe by a T-tube. The deflation limb of a pressure-volume curve was recorded prior to lavage, after extensive lavage with 0.9% NaCl, 10 mM HEPES, pH 7.4 and after administration of surfactant mixtures in 2 ml of 0.9% NaCl, 10 mM HEPES buffer, pH 7.40. The deflation limbs of the pressure-volume (P-V) curves in adult rat lungs were analyzed by calculating the total lung capacities (% TLC) at 5 and 10 cm H2 O pressure (PC5 and PC10). The per cent of total lung capacities at 5 and 10 cm of H2 O (PC5 and PC10) were measured after addition of the synthetic lung surfactants to adult rat lavaged lungs at a dose of 25 mg of lipid (32 umoles) and 1 mg of peptide. Restorations are based on PC5. […] Comparisons were based on restoration,i.e. for PC5, ([…])×100%/(PC5.sbsb.(sufficient) -PC5.sbsb.(deficient)) and made by one-way analysis of variance using the GLM procedure with specific contrasts of the means (SAS Institute Inc., Cary, N.C.).
References, consisting of DPPC alone and dog lung surfactant, respectively,were employed as reference standards: Reference I was prepared as follows. DPPC was purchased from Avanti Polar Lipids. 25 mg of DPPC in chloroform was dried under a stream of nitrogen and lyophilized to remove traces of organic solvent. To the dry lipid mixture was added 3 ml of water. The preparation was incubated at 45° C. for 1 hour with ultrasonication in a bath sonicator. The lipid was lyophilized, stored at 4° C. for up to one week and mixed with 9 ml of 0.9% NaCl, 20 mM HEPES buffer, pH 7.40. […]

[1] = deflation limb of P-V curve, adult rat lavaged lungs, dose 25 mg lipid and 1 mg peptide, mean ± S.E.

Compound: CCCCCCCCCCCCCCCC(=O)OC[C@H](COP(=O)([O-])OCC[N+](C)(C)C)OC(=O)CCCCCCCCCCCCCCC [Reference I, L-α-dipalmitoylphosphatidylcholine]
- effect on improving the compliance of the rat lung (adult rat lung model, stated in words): no effect
- Restoration (%) (based on PC5 relative to sufficient and deficient lungs, mean ± S.E.): -11 ± 8%
- PC5 (% TLC), per cent of total lung capacity at 5 cm H2O [1]: 13 ± 1 % TLC
- PC10 (% TLC), per cent of total lung capacity at 10 cm H2O [1]: 31 ± 2 % TLC
